From patent US9187762B2, “Compositions and methods comprising sequences having hydroxyphenylpyruvate dioxygenase (HPPD) activity” (PIONEER HI-BRED INTERNATIONAL, INC., priority 2010, dated 2015)

B1: SEQ ID NO: 1 (protein)
chain: MGPTPTAAAAGAAVAAASAAEQAAFRLVGHRNFVRFNPRSDRFHTLAFHHVELWCADAASAAGRFSFGLGAPLAARSDLSTGNSAHASLLLRSGSLSFLFTAPYAHGADAATAALPSFSAAAARRFAADHGLAVRAVALRVADAEDAFRASVAAGARPAFGPVDLGRGFRLAEVELYGDVVLRYVSYPDGAAGEPFLPGFEGVASPGAADYGLSRFDHIVGNVPELAPAAAYFAGFTGFHEFAEFTTEDVGTAESGLNSMVLANNSENVLLPLNEPVHGTKRRSQIQTFLDHHGGPGVQHMALASDDVLRTLREMQARSAMGGFEFMAPPTSDYYDGVRRRAGDVLTEAQIKECQELGVLVDRDDQGVLLQIFTKPVGDRPTLFLEIIQRIGCMEKDEKGQEYQKGGCGGFGKGNFSQLFKSIEDYEKSLEAKQAAAAAAAQGS
modifications: Zea mays
B2: GE010883: Sorghum bicolor variant HPPD with maize motif substitutions, SEQ ID NO: 459 (protein)
chain: MPPTPTTAAATGAAVAAASAEQAAFRLVGHRNFVRVNPRSDRFHTLAFHHVELWCADAASAAGRFSFGLGAPLAARSDLSTGNTAHASLLLRSGALAFLFTAPYAHGADAATASLPSFSAAEARRFAADHGLAVRAVALRVADAEDAFRASVAAGARPAFEPVELGLGFRLAEVELYGDVVLRYVSYPDDADASFLPGFVGVTSPGAADYGLRRFDHIVGNVPELAPAAAYMAGFTGFHEFAEFTAEDVGTTESGLNSMALANNAENVLLPLNEPVHGTKRRSQIQTYLDHHGGPGVQHIALASDDVLRTLREMQARSAMGGFEFLPPPLSEYYDGVRRCAGDVLTEAQIKECQELGVMVDRDDQGVLLQIFTKPVGDRPTLFLEIIQRIGCMEKDEKGQEYQKGGCGGFGKGNFGQLFKSIEDYEKSLEAKQAAAAQGS
modifications: HPPD variant

Columns and labels:
soybean plants = test: Herbicide spray tests of transgenic HPPD soy plants (T1/T2) with multiple HPPD-inhibitor herbicides, visual injury; assay type: in vivo; settings: for Soybean Response (% Injury): Elite Line Nontransgenic, foliar, V1 stage; for Soybean Response (% Injury), Null: T1 soybean PHP45921A D0223903 SEQ ID NO: 3, null segregants; for Soybean Response (% Injury), Positive: T1 soybean PHP45921A D0223903 SEQ ID NO: 3, positive segregants
Experimental: T1 plants were evaluated for zygosity. Homozygous single-locus transgenic plants and their corresponding null segregants were identified and T2 true breeding seed was obtained from each. Plants were grown to the V1 to V2 growth stage and then sprayed with the commercial formulation of mesotrione, tembotrione, topramezone, and isoxaflutole. All treatments were applied with nonionic surfactant and ammonium sulfate in a spray volume of 374 L/ha. Multiple rates of each herbicide were applied so a response range could be used to compare the relative tolerance of the different herbicides as well as the relative tolerance of homozygous nulls and positives for each event. The herbicide response for individual treated plants was evaluated by comparing to untreated plants of similar genetic background. Herbicide response ratings were eight days after treatment. Visual injury was on a scale of 0 to 100% injury (0=no effect to 100=dead plant).
T1 soybean plants expressing D0223903 (SEQ ID NO: 3) driven by a synthetic promoter (as described in U.S. Pat. No. 6,072,050) were evaluated with qPCR for the presence of the transgene and null and positive segregants selected. Plants were sprayed at the V1 growth stage with the commercial formulations of mesotrione, tembotrione, topramezone, and isoxaflutole. Two rates of each herbicide were applied foliarly with nonionic surfactant and ammonium sulfate in a spray volume of 374 L/ha. The herbicide response for individual plants was determined by comparing to untreated plants of similar genetic background. Visual injury was on a scale of 0 to 100% injury (0=no effect to 100=dead plant).

maize HPPD [1] = test: HPPD activity, coupled assay with HGD at 320 nm; substrate saturation kinetics (KM, kcat); assay type: biochemical; settings: maize HPPD, wt and variant
Source text: HPPD catalyzes the conversion of 4-hydroxyphenylpyruvate (HPP) to homogentisate. See, FIG. 1. […] However, the product of the ensuing reaction in tyrosine metabolism, maleylacetoacetate, absorbs strongly at 320 nm. Furthermore, the enzyme catalyzing that reaction is also a dioxygenase having similar mechanism and buffer requirements as HPPD, making homogentisate dioxygenase (HGD) an ideal partner in a coupled assay, as shown.
The HDG gene from Pseudomonas aeruginosa (Amaya (2004) Arch Biochem Biophys 421, 135-142) was cloned into pVER7062 and electroporated into E. coli strain BL21(DE3). The enzyme was produced by methods similar to those described for HPPD. The purified enzyme has a KM for homogentisate of 23 uM and a kcat of 100/sec, properties highly suited for instantly converting the homogentisate produced by HPPD to maleylacetoacetate.
HPPD activity was measured by placing an aliquot (e.g., 6 ul) of the substrate HPP at 50-fold the desired final concentration into the wells of a low UV-absorbing assay plate. Reactions were started by adding a mixture (e.g., 294 ul) containing 25 mM Hepes, pH 7, 2 mM ascorbate, 10 uM FeSO4, 1 to 100 uM HPP, 50 nM HGD and 5 to 240 nM HPPD. Absorbance at 320 nm was monitored continuously in a plate-reading spectrophotometer (Spectramax, Molecular Devices).
The catalytic performance of wild-type HPPD and variants generated by shuffling was assessed by determining the substrate saturation parameters. The Michaelis-Menten kinetics protocol of the Spectramax software was customized for HPP concentrations ranging from 3.33 uM to 100 uM, or up to 1 mM if required. Reaction rates were measured as described above for each concentration of HPP. The software returns values of KM and Vmax using the Lineweaver-Burke transformation of the Michaelis-Menten equation.

maize HPPD [2] = test: ON rate ratio, OFF rate ratio and insensitivity parameter with herbicidal HPPD inhibitors; assay type: biochemical; settings: maize HPPD
Source text: To devise a parameter for detecting changes in inhibitor binding affinity, KD, one can utilize the relationship between KD and the rates of binding and release of inhibitor to and from the enzyme. [formula] Higher KD (reduced affinity or increased insensitivity) can be attained with a numerically smaller ON rate, a larger OFF rate or both. […] The ratio of the reaction rate with inhibitor to that without inhibitor during the 70 to 90 second interval of the reaction was termed the “ON rate ratio”. […] Incubations with the same concentrations of enzyme but no mesotrione were done in parallel. After 1 hr at room temperature, 5 to 10 ul of the enzyme-inhibitor complex was dispensed into the wells of the assay plate. Reactions were started with the addition of 290 to 295 ul of 25 mM Hepes, pH 7, 2 mM ascorbate, 10 uM FeSO4, 100 uM HPP and 50 nM HGD. The reactions were monitored at 320 nm for 12 min. Reaction velocity accelerates as inhibitor is released from the enzyme until a steady state is reached, during which the reaction velocity is constant. The ratio of the steady state rate in mixtures containing mesotrione (or other herbicidal inhibitor) to the initial velocity of mixtures lacking inhibitor is termed the “OFF rate ratio”. Another parameter to record is the time span required for the reactions with inhibitor to reach the steady state. […] It is not certain that the steady state attained in the OFF rate reactions actually represents an equilibrium where OFF rates are now equal to ON rates. Because substrate and inhibitors bind in the same site, the high concentration of substrate present may competitively trap the inhibitor and prevent it from binding again. To be sure that improvement in ON rates is being taken into account, the ON and OFF rate ratios were multiplied together and the product is termed the “insensitivity parameter”. […] The variants in Table 9 were grouped according to the parameter in which they are improved compared to wild type. The sequence positions are numbered according to the wild-type maize amino acid sequence of SEQ ID 1. Some substitutions are effective in multiple contexts, as discussed in the next section.

S. bicolor HPPD = test: ON/OFF rate ratio insensitivity parameters of HPPD with maize motif substitutions; assay type: biochemical, Sorghum bicolor
Experimental: [formula] Higher KD (reduced affinity or increased insensitivity) can be attained with a numerically smaller ON rate, a larger OFF rate or both. […] The ratio of the reaction rate with inhibitor to that without inhibitor during the 70 to 90 second interval of the reaction was termed the “ON rate ratio”. […] Incubations with the same concentrations of enzyme but no mesotrione were done in parallel. After 1 hr at room temperature, 5 to 10 ul of the enzyme-inhibitor complex was dispensed into the wells of the assay plate. Reactions were started with the addition of 290 to 295 ul of 25 mM Hepes, pH 7, 2 mM ascorbate, 10 uM FeSO4, 100 uM HPP and 50 nM HGD. The reactions were monitored at 320 nm for 12 min. Reaction velocity accelerates as inhibitor is released from the enzyme until a steady state is reached, during which the reaction velocity is constant. The ratio of the steady state rate in mixtures containing mesotrione (or other herbicidal inhibitor) to the initial velocity of mixtures lacking inhibitor is termed the “OFF rate ratio”. Another parameter to record is the time span required for the reactions with inhibitor to reach the steady state. […] It is not certain that the steady state attained in the OFF rate reactions actually represents an equilibrium where OFF rates are now equal to ON rates. Because substrate and inhibitors bind in the same site, the high concentration of substrate present may competitively trap the inhibitor and prevent it from binding again. To be sure that improvement in ON rates is being taken into account, the ON and OFF rate ratios were multiplied together and the product is termed the “insensitivity parameter”.

Molecule	Soybean Response (% Injury) (soybean plants; rate 26.25 g ai/ha) [%]	Soybean Response (% Injury), Null (soybean plants; rate 26.25 g ai/ha) [%]	Soybean Response (% Injury), Positive (soybean plants; rate 26.25 g ai/ha) [%]	Soybean Response (% Injury) (soybean plants; rate 105 g ai/ha) [%]	Soybean Response (% Injury) (soybean plants; rate 210 g ai/ha) [%]	Soybean Response (% Injury), Null (soybean plants; rate 105 g ai/ha) [%]	Soybean Response (% Injury), Null (soybean plants; rate 210 g ai/ha) [%]	Soybean Response (% Injury), Positive (soybean plants; rate 105 g ai/ha) [%]	Soybean Response (% Injury), Positive (soybean plants; rate 210 g ai/ha) [%]	other results
CS(=O)(=O)c1cc(C(F)(F)F)ccc1C(=O)c1cnoc1C1CC1 [Isoxaflutole]	72	78	5	–	–	–	–	–	–	Soybean Response (% Injury) (soybean plants; rate 13.12 g ai/ha): 70%; Soybean Response (% Injury), Null (soybean plants; rate 13.12 g ai/ha): 80%; Soybean Response (% Injury), Positive (soybean plants; rate 13.12 g ai/ha): 15%
CS(=O)(=O)c1ccc(C(=O)C2C(=O)CCCC2=O)c([N+](=O)[O-])c1 [Mesotrione]	–	–	–	65	75	80	83	10	20	–
CS(=O)(=O)c1ccc(C(=O)C2C(=O)CCCC2=O)c(Cl)c1COCC(F)(F)F [Tembotrione]	–	–	–	70	78	75	75	40	33	–
Cc1c(C(=O)c2cnn(C)c2O)ccc(S(C)(=O)=O)c1C1=NOCC1 [Topramezone]	78	75	5	–	–	–	–	–	–	Soybean Response (% Injury) (soybean plants; rate 52.5 g ai/ha): 78%; Soybean Response (% Injury), Null (soybean plants; rate 52.5 g ai/ha): 78%; Soybean Response (% Injury), Positive (soybean plants; rate 52.5 g ai/ha): 20%
B1	–	–	–	–	–	–	–	–	–	Km (maize HPPD [1]): 5.2 µM; kcat (maize HPPD [1]): 201; OFF ratio (maize HPPD [2]; Mesotrione): 0.255; ON ratio (maize HPPD [2]; Mesotrione): 0.189; ON × OFF Value (maize HPPD [2]; Mesotrione): 0.048; OFF ratio (maize HPPD [2]; Tembotrione): 0.037; ON ratio (maize HPPD [2]; Tembotrione): 0.232; ON × OFF Value (maize HPPD [2]; Tembotrione): 0.0087
B2	–	–	–	–	–	–	–	–	–	improvement of insensitivity vs native protein (S. bicolor HPPD; mesotrione): 6.13 fold; improvement of insensitivity vs native protein (S. bicolor HPPD; tembotrione): 7.71 fold
